Several values for one entry are separate records, joined by “and”; a condition that tells them apart may be missing. Identical values can stand only once. Like-named read-outs stand apart in the source and are kept apart here.

In experiment [1] the target is T1, rat galectin-5 (rGal-5) (Rattus norvegicus, UniProt P47967).
T1 construct: we used the full-length protein to obtain structural information on the N-terminal tail; made in house
The experiment is described as follows: Glycan array (609 compounds) tested with biotinylated rGal-5, Alexa555-streptavidin detection. In kind it is binding. The note with it: 100 µg/mL biotinylated rGal-5; ranking in words. As for the experimental part: The array consisted of 609 compounds covering glycans and polysaccharides printed onto commercial NHS-activated Slide H (Schott Nexterion, Jena, Germany), tested with 100 µg/mL biotinylated rGal-5 and involving Alexa555-labeled streptavidin (Thermo Fisher Scientific, Eugene, OR, USA) as second-step reagent for Innoscan 1100AL scanner-based (Innopsys, Carbonne, France) signal qualification, expressed in medium relative fluorescence units (RFU) and medium absolute deviation (MAD), as described previously. When the fluorescence intensity exceeded the background value by a factor of five, the respective signal was considered to be significant.

In experiment [2] the target is T1, rat galectin-5 (rGal-5). The experiment is described as follows: Isothermal titration calorimetry (ITC) of ligand binding to recombinant rGal-5. As to the method:
The spacered B (type 2) tetrasaccharide was synthesized as described previously. Titrations were monitored in a PEAQ-ITC calorimeter (Malvern, Westborough, MA, USA), using a galectin-containing solution of 250 µL in PBS (10 mM Na2HPO4, 2 mM KH2PO4, 137 mM NaCl and 3 mM KCl at pH 6.8) containing 10 mM β-mercaptoethanol and injections at 150 s intervals of 2 µL ligand-containing solution (up to adding 36.4 µL) at 25 °C (750 rpm), as described. The protein concentration was 125 μM, and the ligand concentration in the syringe was 2.5 mM. In each titration, a fitted offset parameter was applied to account for potential background. Data processing was performed using the MiroCal PEAQ-ITC Analysis software.

[3] abbreviates: 25 °C, individual titration, protein 125 μM, ligand 2.5 mM in syringe, PBS pH 6.8, read-out: Kd.
[4] abbreviates: (summarises Table 2), read-out: dissociation constant.

T1 sequence (P47967 whole entry): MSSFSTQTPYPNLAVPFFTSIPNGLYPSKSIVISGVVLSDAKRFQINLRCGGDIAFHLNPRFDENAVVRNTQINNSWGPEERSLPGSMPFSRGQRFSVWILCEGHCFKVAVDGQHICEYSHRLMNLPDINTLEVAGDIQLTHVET

Turning to `CC(=O)N[C@H]1C(O)O[C@H](CO)[C@@H](O[C@@H]2O[C@H](CO)[C@H](O)[C@H](O[C@H]3O[C@H](CO)[C@H](O)[C@H](O)[C@H]3O)[C@H]2O)[C@@H]1O` (some centres unmarked), the “signal intensity in glycan array” value at rat galectin-5 (rGal-5) [1] is reported as “frontrunners in terms of signal intensity”.
As to `OC[C@H]1O[C@@H](O[C@H]2[C@H](O)[C@@H](O)C(O)O[C@@H]2CO)[C@H](O)[C@@H](O)[C@H]1O` (mixture of isomers) [Lactose, lactose], on rat galectin-5 (rGal-5) [2] (25 °C, individual titration), the Stoichiometry is 0.95 ± 0.05 and 0.99 ± 0.06; the ΔG0obs is -5.35 kcal/mol and -5.22 kcal/mol; the ΔH0obs is -4.99 ± 0.08 kcal/mol and -5.03 ± 0.41 kcal/mol; the “−TΔS0obs” value was -0.36 kcal/mol and -0.18 kcal/mol. In addition, the Kd on rat galectin-5 (rGal-5) [2] (setting [3]) is 121 µM and 151 µM. In addition, on rat galectin-5 (rGal-5) [2] (setting [4]), the Kd came to 136 ± 16 µM.
For the compound `CC(=O)N[C@H]1C(O)O[C@H](CO)[C@@H](O[C@@H]2O[C@H](CO)[C@H](O)[C@H](O)[C@H]2O)[C@@H]1O` (some centres unmarked) [LacNAc, N-acetyllactosamine], at rat galectin-5 (rGal-5) [2] (25 °C, individual titration), the Stoichiometry is 0.92 ± 0.01 and 0.94 ± 0.20; the ΔG0obs was -6.1 kcal/mol and -6.0 kcal/mol; the ΔH0obs is -10.0 ± 0.2 kcal/mol and -10.5 ± 2.6 kcal/mol; the “−TΔS0obs” value was 3.87 kcal/mol and 4.43 kcal/mol. For the same compound, the Kd at rat galectin-5 (rGal-5) [2] (setting [3]) was 28.6 µM and 32.3 µM. The Kd on rat galectin-5 (rGal-5) [2] (setting [4]) worked out at 30.5 ± 1.9 µM.
“histo-blood-group B (type 2) tetrasaccharide [Tetrasacc haride]”: the “signal intensity in glycan array” value on rat galectin-5 (rGal-5) [1] was “frontrunners in terms of signal intensity”. Moreover, at rat galectin-5 (rGal-5) [2] (25 °C, individual titration), the Stoichiometry was 0.98 ± 0.01 and 0.94 ± 0.01; the ΔG0obs was -7.11 kcal/mol; the ΔH0obs is -5.74 ± 0.03 kcal/mol and -5.60 ± 0.03 kcal/mol; the “−TΔS0obs” value was -1.37 kcal/mol and -1.51 kcal/mol. The Kd on rat galectin-5 (rGal-5) [2] (setting [3]) was 5 µM and 6.1 µM. On rat galectin-5 (rGal-5) [2] (setting [4]), the Kd is 5.5 ± 0.6 µM.
